From ChEMBL document CHEMBL1777699, “Part 2: Design, synthesis and evaluation of hydroxyproline-derived α2δ ligands” (Bioorg Med Chem Lett, 2011) come the findings set out here.

pIC50: −log10 of the molar value. Bounds are passed on as bounds.

The species entered for data set [1] is Rattus norvegicus. Nature of the data set: Unbound clearance in rat. It is filed as ADME, organism-based. As to conditions: in vivo.
Data set [2] can be described thus: Displacement of [3H]gabapentin from voltage gated calcium channel alpha2delta from pig cerebral cortex by scintillation counting. It counts as tissue-based, Sus scrofa.
The nature of data set [3]: Lipophilicity, log D of the compound. It is filed as physicochemical. The conditions noted are these: octanol/water.
The nature of data set [4]: Plasma protein binding in human. It is filed as ADME, cell-free. The conditions noted are these: read-out: PPB (converted).
Data set [5] is described as follows: Half life in rat. It counts as ADME, organism-based. As to conditions: in vivo.
The nature of data set [6]: Drug level in rat urine after 24 hrs. As to conditions: read-out: Drug uptake. It counts as ADME.
For data set [7], the species on record is Canis familiaris. The experiment in a line: Unbound clearance in dog. It counts as ADME, organism-based, Canis lupus familiaris. As to conditions: in vivo.
Data set [8] concerns Plasma. The experiment in a line: Cmax in human. It is filed as ADME, organism-based. As to conditions: in vivo.
A short description of data set [9]: Tmax in human. It counts as ADME. As to conditions: plasma.
The nature of data set [10]: Half life in human. It is filed as ADME, cell-free. As to conditions: plasma.
Data set [11] is described as follows: Half life in dog. It counts as ADME, organism-based, Canis lupus familiaris. The conditions noted are these: in vivo.

The compound `O=C(O)[C@@H]1C[C@H](Sc2cccc(Cl)c2)CN1` registered a CL free in data set [1] of 56 mL/min/kg. Besides, in [2], the negative logarithm of the IC50 (pIC50) was 8.15. The compound also gave a logD in data set [3] of 0.3. Besides, in data set [4], the fraction unbound was 0.16. This compound also gave a half-life in data set [5] of 18 min.

On to `O=C(O)[C@@H]1C[C@H](Oc2cccc(F)c2)CN1`, for which the negative-log IC50 (pIC50) in [2] is 7.77.

As to `O=C(O)CNCCSc1ccc(Cl)cc1`, in data set [2], the negative-log IC50 (pIC50) is 6.71.

On to `O=C(O)[C@@H]1C[C@H](Oc2cccc(O)c2)CN1`, for which, in data set [2], the negative logarithm of the IC50 (pIC50) is 7.03.

As to `O=C(O)[C@@H]1C[C@H](Oc2ccc3ccccc3c2)CN1`, in data set [2], the negative-log IC50 (pIC50) is 7.52.

Take `C[C@@]1(C(=O)O)C[C@H](Oc2cccc(Cl)c2)CN1` (stereo in doubt; 36): in [2], the negative logarithm of the IC50 (pIC50) was 5.90.

For `C[C@@H](CNCC(=O)O)Oc1ccc(Cl)cc1`, the pIC50 in data set [2] is 6.28.

Take `O=C(O)[C@@H]1C[C@H](Oc2ccc(Cl)c(F)c2)CN1`: the CL free in data set [1] was 108 mL/min/kg. The pIC50 in data set [2] is 7.59. Also, the logD in data set [3] came out at 0.1. The fraction unbound in data set [4] was 0.05. The half-life in [5] is 90 min.

As to `CCC(C)O[C@@H]1CN[C@H](C(=O)O)C1` (stereo partly drawn), the negative logarithm of the IC50 (pIC50) in data set [2] is 6.57.

As for `C[C@@]1(C(=O)O)C[C@H](Oc2cccc(Cl)c2)CN1` (stereo in doubt; 37), in [2], the pIC50 is less than 5.00.

With `O=C(O)[C@@H]1C[C@H](Oc2ccccc2)CN1`, in [2], the negative logarithm of the IC50 (pIC50) was 6.99.

On to `O=C(O)[C@@H]1C[C@H](Oc2ccc(Cl)cc2)CN1`, for which, in data set [2], the negative-log IC50 (pIC50) is 7.49.

Consider `NCC1(CC(=O)O)CCCCC1` [GABAPENTIN], for which the pIC50 in data set [2] was […].

With `O=C(O)[C@@H]1C[C@H](Sc2ccc(Cl)cc2)CN1`, the pIC50 in [2] is 7.14.

Turning to `O=C(O)[C@@H]1C[C@H](OCc2ccc(Cl)cc2)CN1`, in data set [1], the CL free came to 26 mL/min/kg. For the same compound, in data set [2], the negative-log IC50 (pIC50) is 7.32. Besides, the logD in data set [3] was -0.2. Further, in [4], the fraction unbound was 0.17. In addition, in data set [5], the half-life is 24 min.

On to `COC(=O)[C@@H]1C[C@H](Oc2cccc(Cl)c2)CN1C(=O)OC(C)(C)C`, for which the dose excreted at 24 h in [6] was found to be 85%.

Turning to `O=C(O)[C@@H]1C[C@H](Oc2ccc3c(c2)OCC3)CN1`, the CL free in data set [1] was 111 mL/min/kg. Further, in data set [2], the negative-log IC50 (pIC50) was 7.96. In data set [3], this compound came in with a pH-dependent lipophilicity (logD) of -0.1. Moreover, the fraction unbound in data set [4] is 0.11. The half-life in [5] was 60 min.

As to `O=C(O)[C@H]1C[C@@H](Oc2ccc(Cl)cc2)CN1`, the pIC50 in [2] was less than 5.00.

In the case of `CC(C)(C)OC(=O)N1C[C@@H](Oc2cccc(Cl)c2)C[C@H]1C(=O)O`, in data set [2], the pIC50 is less than 6.00.

Consider `O=C(O)[C@@H]1C[C@H](Oc2ccc(Cl)cn2)CN1`, for which the negative-log IC50 (pIC50) in data set [2] is 6.40.

As to `O=C(O)[C@@H]1C[C@H](Oc2ccc(OC(F)(F)F)cc2)CN1`, the pIC50 in [2] is 5.77.

As to `Cl.O=C(O)[C@@H]1C[C@H](Oc2cccc(Cl)c2)CN1`, the values for the CL free in data set [7] and in data set [1] were 49 mL/min/kg and 41 mL/min/kg, respectively. In addition, the pIC50 in data set [2] is 8.40. This compound also displayed a logD in data set [3] of -0.1. In data set [4], the fraction unbound was 0.07. Further, the half-life in data set [5] was 24 min; in [10], 138 min; in data set [11], 90 min. The same compound gave a Cmax in [8] of 2400 nM. Also, the Tmax in data set [9] came out at 30 min.

As to `O=C(O)[C@@H]1C[C@H](OCc2cccc(Cl)c2)CN1`, in data set [2], the negative logarithm of the IC50 (pIC50) is 7.85.

On to `CC(C)(C)OC(=O)[C@@H]1C[C@H](Oc2cccc(Cl)c2)CN1`, for which the negative-log IC50 (pIC50) in data set [2] was 6.49.

Take `N#Cc1ccccc1O[C@@H]1CN[C@H](C(=O)O)C1`: the negative logarithm of the IC50 (pIC50) in data set [2] is less than 5.00.

For `CCCN1C[C@@H](Oc2cccc(Cl)c2)C[C@H]1C(=O)O`, the pIC50 in data set [2] was less than 6.00.

Consider `O=C(O)[C@@H]1C[C@H](Oc2ccccc2Cl)CN1`, for which the negative logarithm of the IC50 (pIC50) in data set [2] was 7.28.

With `O=C(O)CNCCOc1ccc(Cl)cc1`, in data set [2], the pIC50 was less than 5.10.
